In patent US20060167109A1, “Methods of reducing rhinovirus contagion and related compositions” (priority 2002, published 2006):

Tests used:
Assay in all cases: HRV cytopathic effect assay
Format in all cases: cell-based
Settings in all cases: Human rhinovirus sp.
HRV serotype 10 = system: HRV serotype 10
Experimental: (§1) For sensitivity testing to pleconaril, the appropriate cells were seeded into 96 well plates at a concentration of 4×10^4/well. After an overnight incubation at 37° C., the medium was removed and the cells were infected with 150 μL of a dilution of virus previously titrated to give ≧85% lysis of the monolayer after 3 days of incubation. The plates were incubated for 1 hour at the appropriate temperature and then overlaid with 50 μL of medium containing serial 2-fold dilutions of pleconaril in 2% DMSO. The final DMSO concentration in the assay was always 0.5%. No virus and no pleconaril controls were included on each plate. All drug concentrations were run in quadruplicate. The plates were then incubated for 3 days at the appropriate temperature followed by processing as described above.

HRV serotype 11 = system: HRV serotype 11
Experimental: as §1

HRV serotype 14 = system: HRV serotype 14
Experimental: as §1

HRV serotype 17 = system: HRV serotype 17
Experimental: as §1

HRV serotype 18 = system: HRV serotype 18
Experimental: as §1

HRV serotype 23 = system: HRV serotype 23
Experimental: as §1

HRV serotype 26 = system: HRV serotype 26
Experimental: as §1

HRV serotype 2 = system: HRV serotype 2
Experimental: as §1

HRV serotype 31 = system: HRV serotype 31
Experimental: as §1

HRV serotype 32 = system: HRV serotype 32
Experimental: as §1

HRV serotype 33 = system: HRV serotype 33
Experimental: as §1

HRV serotype 34 = system: HRV serotype 34
Experimental: as §1

HRV serotype 36 = system: HRV serotype 36
Experimental: as §1

HRV serotype 37 = system: HRV serotype 37
Experimental: as §1

HRV serotype 3 = system: HRV serotype 3
Experimental: as §1

HRV serotype 40 = system: HRV serotype 40
Experimental: as §1

HRV serotype 41 = system: HRV serotype 41
Experimental: as §1

HRV serotype 45 = system: HRV serotype 45
Experimental: as §1

HRV serotype 46 = system: HRV serotype 46
Experimental: as §1

HRV serotype 47 = system: HRV serotype 47
Experimental: as §1

HRV serotype 49 = system: HRV serotype 49
Experimental: as §1

HRV serotype 4 = system: HRV serotype 4
Experimental: as §1

HRV serotype 50 = system: HRV serotype 50
Experimental: as §1

HRV serotype 52 = system: HRV serotype 52
Experimental: as §1

HRV serotype 55 = system: HRV serotype 55
Experimental: as §1

HRV serotype 56 = system: HRV serotype 56
Experimental: as §1

HRV serotype 57 = system: HRV serotype 57
Experimental: as §1

HRV serotype 59 = system: HRV serotype 59
Experimental: as §1

HRV serotype 60 = system: HRV serotype 60
Experimental: as §1

HRV serotype 64 = system: HRV serotype 64
Experimental: as §1

HRV serotype 66 = system: HRV serotype 66
Experimental: as §1

HRV serotype 67 = system: HRV serotype 67
Experimental: as §1

HRV serotype 68 = system: HRV serotype 68
Experimental: as §1

HRV serotype 6 = system: HRV serotype 6
Experimental: as §1

HRV serotype 74 = system: HRV serotype 74
Experimental: as §1

HRV serotype 81 = system: HRV serotype 81
Experimental: as §1

HRV serotype 82 = system: HRV serotype 82
Experimental: as §1

HRV serotype 85 = system: HRV serotype 85
Experimental: as §1

HRV serotype 90 = system: HRV serotype 90
Experimental: as §1

HRV serotype 93 = system: HRV serotype 93
Experimental: as §1

HRV serotype 94 = system: HRV serotype 94
Experimental: as §1

HRV serotype 95 = system: HRV serotype 95
Experimental: as §1

HRV serotype 97 = system: HRV serotype 97
Experimental: as §1

Cc1cc(CCCOc2c(C)cc(-c3noc(C(F)(F)F)n3)cc2C)on1 [pleconaril, 3-[3,5-dimethyl-4-[3-(3-methyl-5-isoxazolyl)propoxy]phenyl]-5-(trifluoromethyl)-1,2,4-oxadiazole]
IC50 (HRV serotype 10): 130 ± 50 nM | IC50 (HRV serotype 11): 150 ± 40 nM | IC50 (HRV serotype 14; HRV14, Table 2, mean of at least two independent determinations): 160 ± 90 nM | IC50 (HRV serotype 14; serotype 14): 160 ± 90 nM | IC50 (HRV serotype 17): 230 ± 80 nM | IC50 (HRV serotype 18): 240 ± 100 nM | IC50 (HRV serotype 23): 320 ± 10 nM | IC50 (HRV serotype 26): 1600 ± 600 nM | IC50 (HRV serotype 2; HRV2, Table 2, mean of at least two independent determinations): 30 ± 30 nM | IC50 (HRV serotype 2; serotype 2): 30 ± 30 nM | IC50 (HRV serotype 31): 130 ± 70 nM | IC50 (HRV serotype 32): 330 ± 130 nM | IC50 (HRV serotype 33): 160 ± 30 nM | IC50 (HRV serotype 34): 90 ± 20 nM | IC50 (HRV serotype 36): 110 ± 20 nM | IC50 (HRV serotype 37): 60 ± 20 nM | IC50 (HRV serotype 3; HRV3, Table 2, mean of at least two independent determinations): 90 ± 40 nM | IC50 (HRV serotype 3; serotype 3): 90 ± 40 nM | IC50 (HRV serotype 40): 70 ± 30 nM | IC50 (HRV serotype 41): 1750 ± 1490 nM | IC50 (HRV serotype 45): 4300 ± 1830 nM | IC50 (HRV serotype 46): 160 ± 50 nM | IC50 (HRV serotype 47): 10 nM | IC50 (HRV serotype 49): 170 ± 60 nM | IC50 (HRV serotype 4): > 12500 nM | IC50 (HRV serotype 50; HRV50, Table 2, mean of at least two independent determinations): 350 ± 70 nM | IC50 (HRV serotype 50; serotype 50): 350 ± 70 nM | IC50 (HRV serotype 52): 2490 ± 1210 nM | IC50 (HRV serotype 55): 20 ± 20 nM | IC50 (HRV serotype 56): 110 ± 60 nM | IC50 (HRV serotype 57): 170 ± 50 nM | IC50 (HRV serotype 59): 780 ± 340 nM | IC50 (HRV serotype 60): 480 ± 140 nM | IC50 (HRV serotype 64): 320 ± 240 nM | IC50 (HRV serotype 66): 110 ± 70 nM | IC50 (HRV serotype 67): 250 ± 110 nM | IC50 (HRV serotype 68): 30 ± 20 nM | IC50 (HRV serotype 6): 60 ± 20 nM | IC50 (HRV serotype 74): 30 nM | IC50 (HRV serotype 81): 300 ± 70 nM | IC50 (HRV serotype 82): 220 ± 190 nM | IC50 (HRV serotype 85): 50 ± 20 nM | IC50 (HRV serotype 90): 190 ± 60 nM | IC50 (HRV serotype 93): > 12500 nM | IC50 (HRV serotype 94): 1100 ± 440 nM | IC50 (HRV serotype 95): 810 ± 510 nM | IC50 (HRV serotype 97): > 12500 nM
